Assay results taken from US3997549A, “N-arylsulfenylated derivatives of benzofuranyl methylcarbamates” (priority 1973, dated 1976).
Values after ≈ are worked out from the molar mass of the structure shown. Like-named read-outs stand apart in the source and are kept apart here.

Key:
[1] = system: two-spotted spider mite; test: Residual contact activity, two-spotted spider mite; settings: Tetranychus urticae, 48 h, read-out: % Kill, SM (residual contact)
[2] = system: plum curculio; test: Initial contact activity, plum curculio; settings: Conotrachelus nenuphar, 48 h, read-out: % Kill, PC (initial contact)
[3] = system: granary weevil; test: Residual contact activity, granary weevil; settings: Sitophilus granarius, 48 h, read-out: % Kill, GW (residual contact)
[4] = system: confused flour beetle; test: Residual contact activity, confused flour beetle; type: in vivo; settings: Tribolium confusum, 48 h, read-out: % Kill, FB (residual contact)
Method: (§1) Initial Contact Activity: One-half gram of test compound was dissolved in 40 ml of acetone and this solution was dispersed in 360 ml of water containing one drop of isooctyl phenyl polyethoxyethanol. An aliquot of this solution was diluted with water to provide a solution containing 1250 ppm of active ingredient. Test organisms and techniques were as follows: The activities against the Mexican bean beetle (Epilachna varivestis Muls.) and the southern army worm (Prodenia eridania [Cram.]) were evaluated by dipping the leaves of pinto bean plants into the test solution and infesting the leaves with the appropriate immature form insects when the foliage had dried; the activity against the pea aphid (Macrosiphum pisi [Harris]) was evaluated on broad bean plants whose leaves were dipped before infestation with adult aphids; the activity against the two-spotted spider mite (Tetranychus urticae [L.]) was evaluated on pinto bean plants whose leaves were dipped after infestation with adult mites; the activities against the milkweed bug (Oncopeltus fascinatus [Dallas]) and the plum curculio (Conotrachelus nenuphar [Herbst]) were evaluated by spraying the test solutions into glass dishes containing the adult insects; the activities against the granary weevil (Sitophilus granarius [L.]) and the confused flour beetle (Tribolium confusum [duVal]) were evaluated by introducing the insects into glass dishes which had been previously sprayed with test solution and allowed to dry. All organisms in the test were maintained in a holding room at 80° F. and 50% relative humidity for an exposure period of forty-eight hours. At this time the number of dead and living insects were counted and the percent kill was calculated.
The residual contact activity of the compounds was determined on the same organisms using the technique described above, except that in each case the treated surface was allowed to dry and was exposed to normal light and air for seven days before introduction of the mites or insects. The compounds show a high order of residual activity toward the test insects.

[5] = in vivo; settings: mouse, po
Method: Acute oral toxicity of the compounds of the present invention to mice was determined after the manner of Hollingworth, Fukuto, and Metcalf in J. Agr. […] A dose of 0.25 ml of each solution was administered to each of four female white Swiss mice using the "bolus" - tipped syringe. […] Final mortality determinations were made forty-eight hours after treatment.

[6] = system: southern army worm; test: Initial contact activity, southern army worm; settings: 1250 ppm, 48 h exposure
[7] = system: milkweed bug; test: Residual contact activity, milkweed bug; settings: Oncopeltus fasciatus, 48 h, read-out: % Kill, MWB (residual contact)
[8] = system: Culex fatigans; test: whole plant or invertebrate; settings: Culex quinquefasciatus, 24 h, read-out: Mosquitoes LC50
Method: The appropriate amount of stock solution was added with stirring to 100 ml of tap water and 20-25 fourth instar larvae of Culex fatigans were placed in the solution. After twenty-four hours, the counts were taken. Larvae not able to rise to the surface on touch were counted as dead. Each concentration was run in duplicate and each material was run on two or three different days. The average percent mortality was plotted against the logarithm of the concentration (in ppm) and the LC50 value determined by inspection.

[9] = system: milkweed bug; test: Initial contact activity, milkweed bug; settings: Oncopeltus fasciatus, 48 h, read-out: % Kill, MWB (initial contact)
[10] = system: Mexican bean beetle; test: Residual contact activity, Mexican bean beetle; settings: Epilachna varivestis, 48 h, read-out: % Kill, BB (residual contact)
[11] = system: southern army worm; settings: 2880 min
[12] = system: two-spotted spider mite; test: Initial contact activity, two-spotted spider mite; settings: Tetranychus urticae, 48 h, read-out: % Kill, SM (initial contact)
[13] = system: two-spotted spider mite; test: whole plant or invertebrate; settings: Tetranychus urticae, 48 h, read-out: % Kill, SM (systemic)
[14] = system: pea aphid; test: whole plant or invertebrate; settings: Acyrthosiphon pisum, 48 h, read-out: % Kill, PA (systemic)
[15] = system: plum curculio; test: Residual contact activity, plum curculio; settings: Conotrachelus nenuphar, 48 h, read-out: % Kill, PC (residual contact)
[16] = system: southern army worm; test: Residual contact activity, southern army worm; settings: 1250 ppm; 7 days; 2880 min
[17] = system: Mexican bean beetle; test: Initial contact activity, Mexican bean beetle; settings: Epilachna varivestis, 48 h, read-out: % Kill, BB (initial contact)
[18] = system: granary weevil; test: Initial contact activity, granary weevil; settings: Sitophilus granarius, 48 h, read-out: % Kill, GW (initial contact)
[19] = system: houseflies; test: whole plant or invertebrate; settings: Musca domestica, topical, 24 h, read-out: Houseflies LD50
Method: Toxicity of the compounds of the present invention to houseflies was tested using the technique described by March and Metcalf in Bull. Calif. State Dept. Agr. […] Adult female houseflies were treated with one drop of acetone solution, applied to the prothorax, using a syringe calibrated to deliver 1.00 ± 0.05 mm^3 drops. Twenty flies were treated at each dosage, each test compound was applied at 8 to 10 dosage levels. Each test was replicated three times. […] A one-inch square of cotton saturated with 40% sugar solution was provided for food in each carton. The cartons of flies were held in a constant temperature chamber at 60° F and 60% relative humidity for 24 hours before mortality counts were made. Flies totally unable to make crawling or walking movements were counted as dead. LD50 values were calculated in the conventional manner.

[20] = system: Mexican bean beetle; test: whole plant or invertebrate; settings: Epilachna varivestis, 48 h, read-out: % Kill, BB (systemic)
[21] = system: confused flour beetle; test: Initial contact activity, confused flour beetle; type: in vivo; settings: Tribolium confusum, read-out: % Kill, FB (initial contact)
Method: as §1

[22] = system: pea aphid; test: Residual contact activity, pea aphid; settings: Acyrthosiphon pisum, 48 h, read-out: % Kill, PA (residual contact)
[23] = system: pea aphid; test: Initial contact activity, pea aphid; settings: Acyrthosiphon pisum, 48 h, read-out: % Kill, PA (initial contact)
[24] = 39 ppm soil watering, separate test vs carbofuran

Row | SMILES | mortality at 1250 ppm [1] | mortality at 1250 ppm [2] | mortality at 1250 ppm [3] | LD50 at 48 h [5] | % Kill, AW (initial contact) [6] | mortality at 1250 ppm [7] | LC50 [8] | mortality at 1250 ppm [9] | mortality at 1250 ppm [10] | % Kill, AW (systemic) [11, 24] | % Kill, AW (systemic) ([11]; 156 ppm soil watering) | mortality at 1250 ppm [12] | mortality at 39 ppm [13] | mortality at 156 ppm [13] | mortality at 39 ppm [14] | mortality at 1250 ppm [15] | % Kill, AW (residual contact) [16] | mortality at 1250 ppm [17] | mortality at 1250 ppm [18] | LD50 [19] | other results
1 | Cc1ccc(SN(C)C(=O)Oc2cccc3c2OC(C)(C)C3)cc1 [IV, 2,3-Dihydro-2,2-dimethyl-7-benzofuranyl(methyl)(4-methylphenylthio)carbamate] | 94% | 100% | 100% | 100 to 125 mg/kg | 100% | 100% | 4.5 ng/mL (≈ 0.0131 µM) | 100% | 100% | 100% | 100% | 100% | 24% | 64% | 100% | 100% | 100% | 100% | 100% | 9 mg/kg | mortality at 1250 ppm [4]: 92%; mortality at 39 ppm [20]: 100%; mortality at 156 ppm [20]: 100%; mortality at 1250 ppm ([21]; 48 h): 100%
2 | Cc1cccc(SN(C)C(=O)Oc2cccc3c2OC(C)(C)C3)c1 [Example X, 2,3-Dihydro-2,2-dimethyl-7-benzofuranyl (3-methylphenylthio)(methyl)carbamate] | 30% | 100% | 100% | 25 to 50 mg/kg | 100% | 100% | 4 ng/mL (≈ 0.0116 µM) | 100% | 100% | 100% | 100% | 100% | 26% | 28% | 100% | 95% | 100% | 100% | 100% | 6.5 mg/kg | mortality at 1250 ppm ([4]; 1250 ppm, 7 days): 100%; mortality at 156 ppm [14]: 100%; mortality at 39 ppm [20]: 100%; mortality at 156 ppm [20]: 100%; mortality at 1250 ppm ([21]; 1250 ppm, 48 h exposure): 100%; mortality at 1250 ppm [22]: 100%; mortality at 1250 ppm [23]: 100%
3 | Cc1ccccc1SN(C)C(=O)Oc1cccc2c1OC(C)(C)C2 [Example II, 2,3-Dihydro-2,2-dimethyl-7-benzofuranyl (methyl)(2-methylphenylthio)carbamate] | 13% | 100% | 100% | 100 to 125 mg/kg | 100% | 100% | 4 ng/mL (≈ 0.0116 µM) | 100% | 100% | 85% | 100% | 28% | 5% | 5% | 100% | 100% | 100% | 100% | 100% | 3.7 mg/kg | mortality at 1250 ppm ([4]; 1250 ppm, 7 days): 98%; mortality at 39 ppm [20]: 100%; mortality at 156 ppm [20]: 100%; mortality at 1250 ppm ([21]; 1250 ppm, 48 h exposure): 98%
4 | CN(Sc1ccc(C(C)(C)C)cc1)C(=O)Oc1cccc2c1OC(C)(C)C2 [Example III, 2,3-Dihydro-2,2-dimethyl-7-benzofuranyl (4-tert-butylphenylthio)(methyl)carbamate] | 2% | 100% | 100% | 75 mg/kg | 100% | 100% | 2.5 ng/mL (≈ 0.00648 µM) | 100% | 100% | 0% | 0% | 27% | 1% | 4% | 5% | 95% | 31% | 100% | 100% | 2.7 mg/kg | mortality at 1250 ppm ([4]; 1250 ppm, 7 days): 100%; mortality at 156 ppm [14]: 43%; mortality at 39 ppm [20]: 56%; mortality at 156 ppm [20]: 100%; mortality at 1250 ppm ([21]; 1250 ppm, 48 h exposure): 100%
5 | Cc1cc(C(C)(C)C)ccc1SN(C)C(=O)Oc1cccc2c1OC(C)(C)C2 [Example VI, 2,3-Dihydro-2,2-dimethyl-7-benzofuranyl [4-(tert-butyl)-2-methylphenylthio] (methyl)carbamate] | 7% | 100% | 100% | 75 to 125 mg/kg | 95% | 95% | 2 ng/mL (≈ 0.00501 µM) | 100% | 100% | 0% | 0% | 77% | 11% | 6% | 35% | 53% | 100% | 100% | 100% | 7.5 mg/kg | mortality at 1250 ppm ([4]; 1250 ppm, 7 days): 100%; mortality at 156 ppm [14]: 95%; mortality at 39 ppm [20]: 85%; mortality at 156 ppm [20]: 100%; mortality at 1250 ppm ([21]; 1250 ppm, 48 h exposure): 90%; mortality at 1250 ppm [22]: 0%; mortality at 1250 ppm [23]: 0%
